Five molecules from ChEMBL document CHEMBL1201862, “PubChem BioAssay data set” (2004) can be followed below.

Assay [1] relates to A-375. In words: MITF: Counter assay: A375 proliferation Measured in Cell-Based System Using Plate Reader - 2084-03_Inhibitor_Dose_DryPowder_Activity. [Related pubchem assays (depositor defined):AID488944]. Type of assay: functional. The following applies: Homo sapiens.
The subject of assay [2] is A-375. In words: proliferation inhibition in MITF-low A375 cells – cell-based, cherry-pick samples, set 2, counter-screen for MITF modulator project, dose response (AID 540335). The assay is classed as functional. The following applies: Homo sapiens. In general terms: Counterscreens check selectivity or assay interference.
For another assay, the system named is Escherichia coli. In words: microbe, parasite or virus in culture.
A further assay concerns the target SUMO E1/E2 (Homo sapiens, UniProt P63279+Q9UBE0+Q9UBT2). In words: SAR analysis of SUMOylation using HTRF in an in-Vitro dose response assay. [Related pubchem assays (depositor defined):AID2006, AID2011, AID2018, AID2069, AID2658]. The assay is classed as functional. Background: TR-FRET usually uses a lanthanide donor and a delayed reading to cut background.
The target in assay [3] is T1, Voltage-gated N-type calcium channel alpha-1B subunit/Amyloid beta A4 precursor protein-binding family A member 1 (Homo sapiens, UniProt Q00975+Q02410). In words: disruptors of Mint-PDZ/N-type channel peptide interaction – biochemical, HTRF, SAR follow-up (AID 2489). The assay is classed as functional.
T1 sequence (Q00975 whole entry): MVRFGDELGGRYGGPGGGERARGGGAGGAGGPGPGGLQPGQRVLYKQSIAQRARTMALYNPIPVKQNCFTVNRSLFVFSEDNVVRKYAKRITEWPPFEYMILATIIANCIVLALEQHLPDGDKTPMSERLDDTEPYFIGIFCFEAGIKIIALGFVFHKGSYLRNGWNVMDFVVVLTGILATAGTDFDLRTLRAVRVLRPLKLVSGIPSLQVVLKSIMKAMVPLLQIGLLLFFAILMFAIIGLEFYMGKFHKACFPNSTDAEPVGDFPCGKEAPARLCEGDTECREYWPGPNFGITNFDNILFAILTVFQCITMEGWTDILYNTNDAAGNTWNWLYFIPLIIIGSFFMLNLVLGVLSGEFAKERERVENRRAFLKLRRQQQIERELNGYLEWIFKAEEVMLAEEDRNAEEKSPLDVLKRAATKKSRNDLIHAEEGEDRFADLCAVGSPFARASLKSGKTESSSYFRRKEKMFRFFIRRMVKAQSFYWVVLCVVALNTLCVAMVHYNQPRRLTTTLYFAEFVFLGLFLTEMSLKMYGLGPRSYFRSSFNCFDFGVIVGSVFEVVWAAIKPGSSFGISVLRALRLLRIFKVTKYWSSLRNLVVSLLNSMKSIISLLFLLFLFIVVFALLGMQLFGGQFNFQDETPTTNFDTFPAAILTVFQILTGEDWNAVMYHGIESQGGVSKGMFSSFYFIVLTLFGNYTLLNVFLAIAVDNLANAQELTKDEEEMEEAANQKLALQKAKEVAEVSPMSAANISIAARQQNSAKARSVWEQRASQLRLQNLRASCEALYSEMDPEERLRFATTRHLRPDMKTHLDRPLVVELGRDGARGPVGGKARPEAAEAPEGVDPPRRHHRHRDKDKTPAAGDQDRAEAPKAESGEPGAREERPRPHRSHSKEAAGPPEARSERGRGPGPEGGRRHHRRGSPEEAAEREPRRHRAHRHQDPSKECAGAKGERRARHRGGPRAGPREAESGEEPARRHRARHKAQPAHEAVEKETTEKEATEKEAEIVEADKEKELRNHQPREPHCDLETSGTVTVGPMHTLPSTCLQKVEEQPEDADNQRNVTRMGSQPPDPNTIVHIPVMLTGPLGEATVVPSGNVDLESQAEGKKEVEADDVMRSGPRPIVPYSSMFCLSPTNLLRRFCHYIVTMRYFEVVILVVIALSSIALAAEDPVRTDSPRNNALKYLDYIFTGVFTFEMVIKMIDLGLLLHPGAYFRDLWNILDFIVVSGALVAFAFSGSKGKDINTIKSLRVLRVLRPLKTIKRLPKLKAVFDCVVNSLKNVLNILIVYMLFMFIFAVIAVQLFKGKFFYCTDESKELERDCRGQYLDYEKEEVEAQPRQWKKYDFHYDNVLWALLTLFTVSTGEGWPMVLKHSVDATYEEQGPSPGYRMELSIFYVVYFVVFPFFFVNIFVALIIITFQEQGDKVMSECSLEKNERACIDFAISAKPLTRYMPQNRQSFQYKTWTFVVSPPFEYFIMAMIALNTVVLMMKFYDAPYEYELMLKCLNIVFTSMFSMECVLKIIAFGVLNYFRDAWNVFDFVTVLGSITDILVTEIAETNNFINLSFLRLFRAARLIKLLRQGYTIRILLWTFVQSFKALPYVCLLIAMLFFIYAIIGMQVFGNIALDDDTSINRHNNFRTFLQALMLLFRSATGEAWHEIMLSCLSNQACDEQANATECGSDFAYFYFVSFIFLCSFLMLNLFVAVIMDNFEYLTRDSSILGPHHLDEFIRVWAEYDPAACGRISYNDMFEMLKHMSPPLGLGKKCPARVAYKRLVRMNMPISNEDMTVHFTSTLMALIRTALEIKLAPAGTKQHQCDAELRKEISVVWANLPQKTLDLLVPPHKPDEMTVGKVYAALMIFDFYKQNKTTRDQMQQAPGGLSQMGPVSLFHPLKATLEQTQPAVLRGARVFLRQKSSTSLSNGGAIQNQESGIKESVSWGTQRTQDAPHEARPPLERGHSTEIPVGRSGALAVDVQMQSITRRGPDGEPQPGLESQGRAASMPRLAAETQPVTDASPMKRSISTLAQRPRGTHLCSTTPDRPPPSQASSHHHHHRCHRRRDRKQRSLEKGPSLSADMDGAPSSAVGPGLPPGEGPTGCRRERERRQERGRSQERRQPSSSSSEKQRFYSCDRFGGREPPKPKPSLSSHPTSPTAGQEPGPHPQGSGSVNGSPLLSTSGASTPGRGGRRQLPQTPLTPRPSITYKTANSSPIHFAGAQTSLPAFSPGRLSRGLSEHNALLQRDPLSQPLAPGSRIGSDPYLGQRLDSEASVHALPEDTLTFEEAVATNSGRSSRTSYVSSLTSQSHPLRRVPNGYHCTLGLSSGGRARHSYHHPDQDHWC
T1 sequence (Q02410 whole entry): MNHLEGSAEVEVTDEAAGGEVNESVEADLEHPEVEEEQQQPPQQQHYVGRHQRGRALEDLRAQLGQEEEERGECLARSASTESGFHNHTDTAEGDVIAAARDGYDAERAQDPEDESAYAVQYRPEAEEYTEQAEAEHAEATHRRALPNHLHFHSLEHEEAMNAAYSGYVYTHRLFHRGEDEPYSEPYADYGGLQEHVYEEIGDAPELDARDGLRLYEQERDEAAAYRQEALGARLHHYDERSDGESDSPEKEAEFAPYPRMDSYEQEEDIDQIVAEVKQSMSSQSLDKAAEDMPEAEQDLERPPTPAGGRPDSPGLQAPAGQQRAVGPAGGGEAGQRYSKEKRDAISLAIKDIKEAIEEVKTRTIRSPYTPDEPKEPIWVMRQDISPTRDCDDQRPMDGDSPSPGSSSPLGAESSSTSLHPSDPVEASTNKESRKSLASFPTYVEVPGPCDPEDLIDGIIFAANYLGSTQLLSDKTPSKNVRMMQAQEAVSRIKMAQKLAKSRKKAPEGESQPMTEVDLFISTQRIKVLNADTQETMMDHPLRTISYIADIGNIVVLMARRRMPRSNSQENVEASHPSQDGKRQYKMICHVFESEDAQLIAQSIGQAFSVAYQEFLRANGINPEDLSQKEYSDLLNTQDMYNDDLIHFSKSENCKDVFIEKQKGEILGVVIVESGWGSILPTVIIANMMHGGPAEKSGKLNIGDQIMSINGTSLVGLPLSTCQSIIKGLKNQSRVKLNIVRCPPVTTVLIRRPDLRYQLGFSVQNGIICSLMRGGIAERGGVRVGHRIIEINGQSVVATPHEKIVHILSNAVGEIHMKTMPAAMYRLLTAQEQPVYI
Assay [4] deals with T1, Voltage-gated N-type calcium channel alpha-1B subunit/Amyloid beta A4 precursor protein-binding family A member 1. In words: disruptors of Mint-PDZ/N-type channel peptide interaction – biochemical, HTRF, set 2, SAR follow-up (AID 434980). Type of assay: functional.
The target in assay [5] is T2, Heat shock factor protein 1 (Mus musculus, UniProt P38532).
T2 sequence (P38532 whole entry): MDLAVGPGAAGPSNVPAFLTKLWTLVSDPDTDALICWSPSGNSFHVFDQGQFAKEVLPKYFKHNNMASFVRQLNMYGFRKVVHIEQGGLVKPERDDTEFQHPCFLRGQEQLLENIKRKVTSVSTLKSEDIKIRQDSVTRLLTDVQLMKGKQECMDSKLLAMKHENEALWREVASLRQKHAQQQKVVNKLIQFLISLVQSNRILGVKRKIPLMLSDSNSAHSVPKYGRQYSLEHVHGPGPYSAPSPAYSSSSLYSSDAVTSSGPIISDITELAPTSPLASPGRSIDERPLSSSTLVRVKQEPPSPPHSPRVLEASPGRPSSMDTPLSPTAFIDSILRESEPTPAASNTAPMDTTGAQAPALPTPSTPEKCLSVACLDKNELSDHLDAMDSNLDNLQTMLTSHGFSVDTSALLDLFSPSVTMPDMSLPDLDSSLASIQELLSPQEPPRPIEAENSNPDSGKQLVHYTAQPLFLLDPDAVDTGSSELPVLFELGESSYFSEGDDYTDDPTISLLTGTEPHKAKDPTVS
In words: decrease of HSF1-responsive luciferase luminescence – cell-based, NIH3T3, dose retest, confirmation (AID 2382).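 Note: NIH3T3 fibroblasts with HSF1-driven luciferase reporter stressed by proteasome inhibitor MG132; luminescence from HSF1-driven luciferase expression after 8 hours of MG132 stress.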 The assay is classed as functional.

Assay [6] in a line: Luminescence Cell-Based Dose Retest to Confirm Inhibitors of Cancer Stem Cells. [Related pubchem assays (depositor defined):AID2717, AID2721]. Type of assay: functional. The conditions noted are these: Homo sapiens.
A short description of assay [7]: viability loss of HMLE_sh_eGFP cells – cell-based, luminescence, counter-screen for HMLE_sh_ECad selective toxicity project, dose response (AID 463074).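 Note: HMLE human mammary epithelial cells expressing control shRNA against eGFP.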 Type of assay: functional, Homo sapiens.
In a further assay the test system is INS1. As to the kind of experiment: INS-1E survival protection against cytokine death – cell-based, luminescence, retest, dose response (AID 449756).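 Note: cell death triggered by IL-1 beta plus TNF-alpha plus IFN-gamma mixture; protective hits raise ATP signal compared with cytokine alone wells.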 Type of assay: functional. The following applies: Rattus norvegicus.
For assay [8], the target named is Beta-adrenergic receptor kinase 1 (Homo sapiens, UniProt P25098). As to the kind of experiment: blockers of aptamer binding to GRK2 – biochemical, flow cytometry beads, FAM-aptamer, powder set 1, dose response (AID 588720).
Sequence of Beta-adrenergic receptor kinase 1 (P25098 whole entry): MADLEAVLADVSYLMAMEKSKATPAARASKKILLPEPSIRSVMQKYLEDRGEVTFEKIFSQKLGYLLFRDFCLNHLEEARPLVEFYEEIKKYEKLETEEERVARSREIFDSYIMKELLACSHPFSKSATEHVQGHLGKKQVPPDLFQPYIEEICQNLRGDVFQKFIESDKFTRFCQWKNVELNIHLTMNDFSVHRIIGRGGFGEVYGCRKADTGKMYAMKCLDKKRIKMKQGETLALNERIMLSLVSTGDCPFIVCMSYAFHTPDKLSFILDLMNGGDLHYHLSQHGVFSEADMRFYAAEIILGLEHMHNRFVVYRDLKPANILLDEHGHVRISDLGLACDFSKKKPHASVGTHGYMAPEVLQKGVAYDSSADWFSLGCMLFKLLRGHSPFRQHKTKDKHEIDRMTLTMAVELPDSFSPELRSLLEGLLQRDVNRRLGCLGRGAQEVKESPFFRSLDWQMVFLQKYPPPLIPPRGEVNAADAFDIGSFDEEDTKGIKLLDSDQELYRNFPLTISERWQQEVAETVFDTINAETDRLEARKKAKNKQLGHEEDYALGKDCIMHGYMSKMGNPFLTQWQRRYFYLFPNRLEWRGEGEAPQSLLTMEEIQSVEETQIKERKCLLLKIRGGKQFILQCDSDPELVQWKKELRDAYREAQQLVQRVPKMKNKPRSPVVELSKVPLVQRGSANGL

SMILES strings stand for the structures. Calls of active or inactive are those of the source. A value given as a limit tells only on which side of the number the result lay.

Sequence of SUMO E1/E2 (Q9UBE0 whole entry): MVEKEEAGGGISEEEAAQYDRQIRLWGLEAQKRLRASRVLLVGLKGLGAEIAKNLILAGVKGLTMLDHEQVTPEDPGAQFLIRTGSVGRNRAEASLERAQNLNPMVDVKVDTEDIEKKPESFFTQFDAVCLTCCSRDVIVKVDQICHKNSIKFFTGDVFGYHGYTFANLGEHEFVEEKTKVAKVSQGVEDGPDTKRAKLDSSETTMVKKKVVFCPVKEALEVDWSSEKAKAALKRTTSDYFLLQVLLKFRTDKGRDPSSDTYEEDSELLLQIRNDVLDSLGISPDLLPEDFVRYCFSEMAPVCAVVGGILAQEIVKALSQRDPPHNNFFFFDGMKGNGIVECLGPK
Sequence of SUMO E1/E2 (Q9UBT2 whole entry): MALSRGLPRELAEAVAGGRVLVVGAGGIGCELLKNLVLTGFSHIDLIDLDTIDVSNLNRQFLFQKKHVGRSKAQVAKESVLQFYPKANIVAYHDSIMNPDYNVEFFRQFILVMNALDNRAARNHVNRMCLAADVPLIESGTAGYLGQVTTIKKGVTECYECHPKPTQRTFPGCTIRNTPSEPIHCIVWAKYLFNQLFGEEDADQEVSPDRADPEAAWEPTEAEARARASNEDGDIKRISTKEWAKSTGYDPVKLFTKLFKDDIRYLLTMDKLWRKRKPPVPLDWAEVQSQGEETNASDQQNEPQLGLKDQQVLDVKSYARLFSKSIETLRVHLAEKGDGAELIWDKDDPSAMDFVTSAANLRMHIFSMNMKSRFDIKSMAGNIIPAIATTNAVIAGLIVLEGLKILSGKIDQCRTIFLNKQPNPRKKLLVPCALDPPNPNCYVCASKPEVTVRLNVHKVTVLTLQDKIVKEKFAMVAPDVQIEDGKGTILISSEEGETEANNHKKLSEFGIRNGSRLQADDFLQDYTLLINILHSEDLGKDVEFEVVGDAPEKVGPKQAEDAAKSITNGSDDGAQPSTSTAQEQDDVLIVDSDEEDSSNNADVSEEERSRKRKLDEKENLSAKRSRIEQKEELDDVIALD
Sequence of SUMO E1/E2 (P63279 whole entry): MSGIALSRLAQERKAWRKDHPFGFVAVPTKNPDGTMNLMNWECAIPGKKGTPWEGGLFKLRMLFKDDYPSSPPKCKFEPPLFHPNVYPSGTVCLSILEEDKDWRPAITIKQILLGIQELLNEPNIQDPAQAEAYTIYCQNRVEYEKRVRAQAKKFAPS

Usually AC50 stands for the concentration giving half of the maximal activity seen. As to `COc1ccc(CCC(=O)N2CCc3ccccc32)cc1`, the AC50 in the assay with A-375 [1] and with A-375 [2] was > 35 µM (active) each time.
For the molecule `CCOC(=O)c1ccc(NC(=O)c2cn(CCC#N)nc2-c2ccc3c(c2)OCCO3)cc1`, in the assay with Escherichia coli, the AC50 was 30.3 µM (active).
One may read the IC50 as the concentration that inhibits the measured activity by half. Consider `Cc1ccccc1CNC(=O)COC(=O)c1cc(-c2ccco2)nc2ccccc12`, for which the IC50 at SUMO E1/E2 is 3.83 µM (active); in assay [3] it was 20.2 µM (active); in assay [4], 10.9 µM (active).
In general, EC50 refers to the concentration at which the effect is half-maximal. Take `Cc1oc(/N=C/c2ccccc2)c(C#N)c1C`: the EC50 in assay [5] is > 195 µM (not active). Moreover, the AC50 in assay [6] is > 195 µM (inactive); in [7] it was 33.8 µM (active); with INS1 it was > 260 µM (inactive).
As to `CCOc1ccc(CCNC(=O)CCS(=O)(=O)c2ccc(Br)cc2)cc1OCC`, in assay [8], the EC50 was 17.7 µM (inactive).
